pIC50: −log10 of the molar value.
How the values were obtained:
Human LDLs = assay: Oxidation of human LDL by cupric ions (fluorescence), antioxidant effect; format: biochemical
Description: Human LDLs placed in aqueous solution in the presence of cupric ions, become spontaneously oxidised on their protein component, apolipoprotein-B. This oxidation makes the particle fluorescent, which is exploited to measure a pharmacological effect.
The reactions and measurements are carried out in black 96-well plates. 10 μl of a solution of the test product dissolved in dimethyl sulfoxide are first mixed with 170 μl of a solution of human LDL at a concentration of 120 μg/ml and 20 μl of 100 μM CuCl2. After stirring, the mixture is incubated for 2 hours at 37° C., and a first fluorescence reading is taken (excitation at 360 nm, reading at 460 nm). The mixture is then incubated for a further 22 hours, to take a second reading under the same conditions. The difference is proportionately smaller the greater the antioxidant power of the test product. Probucol is used as reference product at a concentration of 10 μM.
The concentrations that inhibit 50% (IC50) of the oxidation are prepared from three concentrations of the test product. They are given in Table B below for some of the compounds of the formula I given as examples below.

[1] = Spontaneous release of nitric oxide, titrated as nitrites+nitrates (Griess reagent, nitrate reductase); settings: nitrites+nitrates released; test product 150 μM, 4 hours at 37° C., pH 7.5 PBS buffer; compounds of formula I
Description: A solution of a compound of the formula I of the invention spontaneously releases nitric oxide. The nitrite ions resulting therefrom are titrated by colorimetry by means of a specific reagent (Griess). To take account of any release of nitrate ions in addition to the nitrites, bacterial nitrate reductase is added to the reaction medium to reduce the nitrate ions formed.
The reactions and measurements are carried out in transparent 96-well plates. The test products are dissolved at the time of use, at a concentration of 3 mM in dimethyl sulfoxide. 95 μl of a reagent containing nitrate reductase (0.18 U/ml in 100 mM pH 7.5 PBS buffer, 210 μM β-NADPH, 5 μM FAD) and 5 μl of the solution of the test product (final concentration of 150 μM) are then added to each well. After stirring, the mixtures are incubated for 4 hours at 37° C. The reaction is then stopped by adding 100 μl of Griess' reagent (Sigma G4410). The resulting mixture is stirred for 5 min at room temperature, and the optical density is then read at 540 nm. This value is proportional to the concentration of nitrites+nitrates in the medium. A calibration range is made for each plate, using NaNO2.
The results are expressed as μmol/l (μM) of nitrites+nitrates released in Table A for some of the compounds of the formula I given as examples below.

[2] = human LDL + CuCl2, fluorescence 2 h vs 24 h at 37° C., compounds of formula I (Table B)
[3] = oxidation of human lipoproteins, compounds of formula II (Table C)

SMILES | pIC50 (Human LDLs; [2]) | Nitrites-Nitrates [1] [µM] | pIC50 (Human LDLs; [3]) | melting point [°C]
COc1ccc(N(N=O)c2ccc(C(=O)Nc3cccnc3)cc2)cc1 [Example 1b, 4-[1-(4-Methoxyphenyl)-2-oxohydrazino]-N-pyrid-3-ylbenzamide] | 5.34 | 63 | – | 167 to 169
COc1ccc(Nc2cccc(C(=O)Nc3cccnc3)c2)cc1 [Example 4a, 3-[(4-Methoxyphenyl)amino]-N-pyrid-3-ylbenzamide] | – | – | 5.04 | –
COc1ccc(N(N=O)c2cccc(C(=O)Nc3cccnc3)c2)cc1 [Example 4b, 3-[1-(4-Methoxyphenyl)-2-oxohydrazino]-N-pyrid-3-ylbenzamide] | 4.90 | 70 | – | –
O=NN(c1ccc(C(=O)Nc2cccnc2)cc1)c1ccc([N+](=O)[O-])cc1 [Example 5b, 4-[1-(4-Nitrophenyl)-2-oxohydrazino]-N-pyrid-3-ylbenzamide] | – | 47 | – | –
COc1ccc(N(N=O)c2ccc(C(=O)NCCN3CCN(C)CC3)cc2)cc1 [Example 6b, 4-[1-(4-Methoxyphenyl)-2-oxohydrazino]-N-[2-(4-methylpiperazin-1-yl)-ethyl]benzamide] | – | 58 | – | –
COc1ccc(Nc2ccc(C(=O)Nc3cccc([N+](=O)[O-])c3)cc2)cc1 [Example 8a] | – | – | 5.00 | –
COc1ccc(N(N=O)c2ccc(C(=O)Nc3ccccn3)cc2)cc1 [Example 14b, 4-[1-(4-methoxyphenyl)-2-oxohydrazino]-N-pyrid-2-ylbenzamide] | – | 90 | – | –
COc1ccc(N(N=O)c2ccc(C(=O)Nc3ccncc3)cc2)cc1 [Example 15b] | 5.32 | 82 | – | –

Now from value to molecule, other results behind:

pIC50 (Human LDLs; [2]) | Nitrites-Nitrates [1] [µM] | pIC50 (Human LDLs; [3]) | SMILES | melting point [°C]
– | – | 4.89 | COc1ccc(Nc2ccc(C(=O)Nc3ccccc3)cc2)cc1 [Example 33a] | –
– | – | 5.11 | COc1ccc(Nc2cccc(C(=O)NCc3cccnc3)c2)cc1 [Example 132a] | –
5.03 | 82 | – | COc1ccc(N(N=O)c2cccc(C(=O)NCc3cccnc3)c2)cc1 [Example 132b] | –
– | – | 5.35 | COc1ccc(Nc2cccc(C(=O)Nc3ccccn3)c2)cc1 [Example 134a] | –
– | – | 5.12 | COc1ccc(Nc2cccc(C(=O)Nc3ccncc3)c2)cc1 [Example 135a] | –
5.07 | 75 | – | COc1ccc(N(N=O)c2cccc(C(=O)Nc3ccncc3)c2)cc1 [Example 135b] | –
– | – | 4.70 | COc1ccc(Nc2ccc(S(=O)(=O)Nc3cccnc3)cc2)cc1 [Example 136a] | –
